Here are results for one compound from patent publication US20090325202A1, “Methods for Developing and Assessing Therapeutic Agents” (priority 2006, published 2009).

For assay [1], the system named is Panc 265 human pancreas cancer xenograft. Briefly: Panc 265 xenograft tumor growth. The settings on record: CCI-779 20 mg/kg days 1-5 i.p. The class given is in vivo, nude mice.
Text: Tumor tissue was then cut into slices (5×5×0.5−1 mm diameter) and implanted subcutaneously into nude mice. Tumor slices averaging 5×5×0.5−1 mm diameter from the patient, or 3×3×0.5−1 mm dia in serial passage were implanted subcutaneously into both flanks of nude mice. Tumors were removed under sterile conditions/laminar flow and reimplanted subcutaneously in groups of 5 mice. When the tumors on second passage of each group reached 1.5 cm, they were excised and cut into pieces of 3×3×3 mm, and transplanted on another 35-40 mice.
For the in vivo assessment experiments, treatment started when the mean tumor volumes reach approximately 200 mm.
To obtain cancer cells, each animal tumor was sampled as described above. […] At day 7 of therapy, AD/DQ slides were prepared from tumor FNAB samples to retrospectively correlate the results of in vivo and ex vivo chemosentitivty tests from the same xenograft animal.
Assay [2] deals with S6 ribosomal protein. Briefly: Panc 265 xenograft in vivo FNAB smears, S6 ribosomal protein phosphorylation. The arrangement: species or system human. The following applies: CCI-779 20 mg/kg days 1-5 i.p., FNAB day 7. The procedure:
Animals were either untreated or treated with ZD1839: 150 mg/Kg daily or CCI-779: 20 mg/kg days 1-5 by intraperitoneal injection
(§1) To obtain cancer cells, each animal tumor was sampled as described above. After collection of tumor FNAB samples, xenograft animals were subsequently treated with ZD1839 or CCI-779 for 28 days and tumor volumes were determined as described above. At day 7 of therapy, AD/DQ slides were prepared from tumor FNAB samples to retrospectively correlate the results of in vivo and ex vivo chemosentitivty tests from the same xenograft animal.
(§2) After the treatment cells were collected, protein extracts were prepared and Western blot analysis was performed as described above. The ex vivo effect of ZD 1839 and CCI-779 on phosphorylation of ERK1/2 or S6 ribosomal proteins, respectively, was correlated with the in vivo data gathered from the FNAB smears prepared at day 7 of treatment.

In assay [3] the test system is S6 ribosomal protein. Nature of the assay: Panc 265 xenograft FNAB cells treated ex vivo, S6 ribosomal protein phosphorylation. The class given is cell-based, human. The settings on record: Panc 265 FNAB cells; CCI-779 1 uM; 6 hours. The procedure: as §1
To determine viability of tumor cells obtained by FNAB, trypan blue dye exclusion assay was performed. The viability of tumor cells obtained by tumor FNAB from control animals was over 95%. Approximately 75,000 tumor cells were seeded into each well of a 6-well polypropylene microplate. Cells were treated in duplicates with vehicle (control) or with ZD1839 (5 uM) or CCI-779 (1 uM) in a humidified 5% CO2 incubator at 37° C. for different periods to determine the optimal treatment time to analyze drug effects.
as §2

Assay [4] relates to S6 ribosomal protein. Nature of the assay: In vivo tumor FNAB Western blot, S6 ribosomal protein phosphorylation (Example 5). The settings on record: tumor samples of treated animals compared to control. On the procedure:
Fine needle aspiration yielded up to 200 μg of total protein as determined using the BCA protein assay (Pierce) and bovine serum albumin as a standard. Protein extracts (15 μg) were added to a loading buffer boiled and electrophoresed on a 7 or 10% (w/v) polyacrylamide gel in the presence of SDS. Molecular weights of the immunoreactive proteins were estimated based upon the relative migration with colored molecular weight protein markers (Amersham Pharmacia Biotech). After electrotransfer to Immobilon-P membranes (Millipore), membranes were blocked at room temperature using SuperBlock (Pierce,#37516) for one hour. The primary antibodies were diluted at 1:1000 in 1:10 dilution of SuperBlock solution and the membranes were incubated with primary antibodies overnight at 4° C. Next day, the membranes were washed and incubated for 1 h at room temperature with horseradish peroxidase (HRP)-conjugated secondary antibodies, rabbit IgG-HRP (SC-2004), or mouse IgG-HRP (SC-2005) from Santa Cruz Biotechnology at a final dilution of 1:3000. After washing three times with Tris-buffered saline antibody binding was visualized using enhanced chemiluminescence (SuperSignal West Pico, Pierce) and autoradiography.
The expression levels and the phosphorylation status of EGFR, ERK1/2 and S6 ribosomal protein were determined on Western blot analysis.
(Immunoblotting shows a protein as a band on a membrane.)

In assay [5] the test system is primary human pancreatic cancer xenograft tumors. Briefly: Tumor growth (RTG) in xenograft mouse models of primary human pancreatic cancer. The class given is in vivo, athymic (nu+/nu+) mice. From the text: Four-week-old female athymic (nu+/nu+) mice were purchased from Harlan (Harlan Laboratories, Washington, D.C.). The research protocol was approved by the Johns Hopkins University Animal Care and Use Committee and animals were maintained in accordance to guidelines of the American Association of Laboratory Animal Care. Briefly, frozen pancreatic xenografts in first passage in mice, after being obtained from surgical specimens of patients undergoing pancreatic resection for adenocarcinoma at the Johns Hopkins Hospital were re-implanted subcutaneously in groups of 5 mice for each patient, with 2 small pieces per mouse (F2 generation). Tumors were allowed to grow to a size of 1.5 cm at which point they were harvested, divided into small ˜3×3×3 mm pieces, and transplanted to another 18-22 mice, with two tumors per mouse. Tumors from this second mouse-to-mouse passage were allowed to grow until reaching −200 mm^3, at which time mice were randomized in the following three treatment groups, with 6 mice in each group: control (vehicle), erlotinib (50 mg/kg/day i.p.), and temsirolimus (20 mg/kg days 1-5 i.p.). Mice were monitored daily for signs of toxicity and were weighed three times per week. Tumor size was evaluated three times per week by caliper measurements using the following formula: tumor volume=[length×width^2]/2 as previously reported (19). Relative tumor growth (RTG) was calculated by tumor growth of treated mice divided by tumor growth of control mice (T/C)×100. Experiments were terminated on day 28. Tumor response was defined as sensitive, when RTG was less than 50% on day 28.
(In xenograft studies the graft and the host belong to different species.)

SMILES strings stand for the structures.

In the case of `CO[C@H]1C[C@@H]2CC[C@@H](C)[C@@](O)(O2)C(=O)C(=O)N2CCCC[C@H]2C(=O)O[C@H]([C@H](C)C[C@@H]2CC[C@@H](OC(=O)C(C)(CO)CO)[C@H](OC)C2)CC(=O)[C@H](C)/C=C(\C)[C@@H](O)[C@@H](OC)C(=O)[C@H](C)C[C@H](C)/C=C/C=C/C=C/1C` [temsirolimus, Temsirolimus], the “inhibition of tumor growth” value in assay [1] was found to be 70%. Besides, the “target protein phosphorylation in vivo” value with S6 ribosomal protein [2] was “strongly inhibited target protein phosphorylation”. For the same compound, in the assay with S6 ribosomal protein [3], the “activity (phosphorylation) of target protein S6 ribosomal protein ex vivo” value is on record as “successfully inhibited the activity of its target protein”. For the same compound, the “S6 ribosomal protein phosphorylation in vivo” value in the assay with S6 ribosomal protein [4] is given as “effectively blocked S6 ribosomal protein phosphorylation”. Moreover, the “relative growth (RTG)” value in assay [5] (all tumors except A194, temsirolimus 20 mg/kg days 1-5 i.p., day 28) is listed as “less than 50%”. Moreover, the tumor response result in assay [5] (tumor A194) is “resistant (greater than 50% RTG and were defined as resistant)”; in assay [5] (tumor A198), “sensitive (Tumor response was defined as sensitive, when RTG was less than 50% on day 28)”.
